Structure (SMILES)	melting point [°C]
CN(C)CCN(CCC12CC3CC(CC(C3)C1)C2)C(=O)NCCCc1ccncc1 [Compound No. 1-15, 1-[2-(1-Adamantyl)ethyl]-1-[2-(dimethylamino)ethyl]-3-[3-(4-pyridyl)propyl]urea]	104 to 106.5
OCCN(CCc1ccccc1)C(=S)NCCCc1ccncc1 [Compound No. 7-2, 1-(2-Hydroxyethyl)-1-phenethyl-3-[3-(4-pyridyl)propyl]thiourea]	105.6 to 107.1
O=C(NCCCc1ccncc1)N(CCC12CC3CC(CC(C3)C1)C2)CC(F)(F)F [Compound No. 1-114, 1-[2-(1-Adamantyl)ethyl]-3-[3-(4-pyridyl)propyl]-1-(2,2,2-trifluoroethyl)urea]	106.2 to 107.3
CCCCCN(CCC12CC3CC(CC(C3)C1)C2)C(=O)NCC(Cc1ccccc1)Cc1ccncc1 (stereo not shown) [Compound No. 1-109, 1-[2-(1-Adamantyl)ethyl]-3-[2-benzyl-3-(4-pyridyl)propyl]-1-pentylurea]	111 to 116
CCCCCN(CCC12CC3CC(CC(C3)C1)C2)C(=O)NCCc1ccncc1 [Compound No. 1-80, 1-[2-(1-Adamantyl)ethyl]-1-pentyl-3-[2-(4-pyridyl)ethyl]urea]	107 to 118
CCCCCN(CCC12CC3CC(CC(C3)C1)C2)C(=O)NCCCCc1ccncc1 [Compound No. 1-87, 1-[2-(1-Adamantyl)ethyl]-1-pentyl-3-[4-(4-pyridyl)butyl]urea]	74.1 to 78.1
CC(C)(C)OC(=O)CCN(CCC12CC3CC(CC(C3)C1)C2)C(=O)NCCCc1ccncc1 [Compound No. 1-69, 1-[2-(1-Adamantyl)ethyl]-1-[2-(t-butoxycarbonyl)ethyl]-3-[3-(4-pyridyl)propyl]urea]	124.5 to 127
CCCCN(CCC12CC3CC(CC(C3)C1)C2)C(=O)NCCCc1ccncc1 [Compound No. 1-57, 1-[2-(1-Adamantyl)ethyl]-1-butyl-3-[3-(4-pyridyl)propyl]urea]	109.5 to 118
CC(C)(C)OC(=O)NCCN(CCC12CC3CC(CC(C3)C1)C2)C(=O)NCCCc1ccncc1 [Compound No. 10-8, 1-[2-(1-Adamantyl)ethyl]-1-[2-[N-(t-butoxycarbonyl)amino]ethyl]-3-[3-(4-pyridyl)propyl]urea]	158 to 160.5
CN(CCN(CCC12CC3CC(CC(C3)C1)C2)C(=O)NCCCc1ccncc1)S(C)(=O)=O [Compound No. 10-4, 1-[2-(1-Adamantyl)ethyl]-1-[2-[N-methyl-N-(methylsulfonyl)amino]ethyl]-3-[3-(4-pyridyl)propyl]urea]	164.9 to 167.2
CCCCCN(CCC12CC3CC(CC(C3)C1)C2)C(=O)NCCCc1ccnc2ccccc12 [Compound No. 1-91, 1-[2-(1-Adamantyl)ethyl]-1-pentyl-3-[3-(4-quinolyl)propyl]urea]	80.2 to 102

Other lines, results leading:

melting point [°C]	Structure (SMILES)
97.5 to 98.2	CCN(CCCC12CC3CC(CC(C3)C1)C2)C(=O)NCCCc1ccncc1 [Compound No. 1-130, 1-[3-(1-Adamantyl)propyl]-1-ethyl-3-[3-(4-pyridyl)propyl]urea]
99 to 102	C=CCN(CCC12CC3CC(CC(C3)C1)C2)C(=O)NCCCc1ccncc1 [Compound No. 1-23, 1-[2-(1-Adamantyl)ethyl]-1-allyl-3-[3-(4-pyridyl)propyl]urea]
94 to 98	O=C(NCCCc1ccncc1)N1CCOCC1 [Compound No. 1-6, N-[3-(4-Pyridyl)propyl]-4-morpholinecarboxamide]
152 to 154	C#CCN(CCC12CC3CC(CC(C3)C1)C2)C(=O)NCCCc1ccncc1 [Compound No. 1-17, 1-[2-(1-Adamantyl)ethyl]-1-(2-propynyl)-3-[3-(4-pyridyl)propyl]urea]
110 to 110.5	CCCN(CCCCC12CC3CC(CC(C3)C1)C2)C(=O)NCCCc1ccncc1 [Compound No. 1-125, 1-[4-(1-Adamantyl)butyl]-1-propyl-3-[3-(4-pyridyl)propyl]urea]
